Experimental data published in US11266599B2, “Inhalable dry powder cytidine analogue composition and method of use as a treatment for cancer” (Lovelace Biomedical Research Institute, priority 2018, dated 2022).
Each block holds one compound with its values, some of them ahead of it.

Tests used:
[1] = Pharmacokinetics study of systemic, inhaled aqueous and inhaled dry powder 5AZA, with and without THU; type: in vivo, Sprague Dawley rat; conditions: THU 80 mg/kg oral
Method: The 5AZA aerosol was delivered into the lungs of rats using a nose only inhalation delivery system in which a 5AZA dry powder formulation and a 5AZA aqueous formulation aerosol is generated with a rotating brush generator or Pari nebulizer, respectively. […] At each time-point, systemic blood was collected into K3EDTA tubes for separation into plasma and lung, liver, and brain tissue was snap frozen in liquid nitrogen. Plasma and lung tissue samples were assayed via a liquid chromatography mass spectrometry assay and the average concentration versus time profile modeled with non-compartmental analysis.

[2] = system: xenografts of human LC-derived cell lines; conditions: Rowett nude rat, systemic intraperitoneal injection, reference 29; cited from earlier work
[3] = system: PD-L1; conditions: LC cell lines, in vitro; cited from earlier work
[4] = room temperature; cited from earlier work
[5] = rats, intravenous 200 mg/kg for a month; cited from earlier work

effect of addition of THU on PK profile of the dry powder formulation in brain [1]: greatly improved | effect of addition of THU on lung PK of 5AZA [1]: did not influence
Compound: O=C1NC(O)CCN1[C@@H]1O[C@H](CO)[C@@H](O)[C@H]1O (stereo partly drawn) [THU, tetrahydrouridine]

Compound: Nc1ncn([C@@H]2O[C@H](CO)[C@@H](O)[C@H]2O)c(=O)n1 [5AZA, 4-amino-1-β-D-ribofuranosyl-1,3,5-triazin-2(1H)-one]
reduction of tumor burden / suppression of tumor growth [2]: 31% | expression of PD-L1 [3]: increased

Compound: Nc1ncn([C@H]2C[C@H](O)[C@@H](CO)O2)c(=O)n1 [DAC, 5-aza-2′-deoxyazacytidine]
stability in aqueous solution [4]: relatively unstable

Compound: C[S+](C)[O-] [DMSO]
toxicity [5]: no toxicity
